Consider 1 compound from US12435316B2, “Three dimensional human brain tumor models” (priority 2018, dated 2025).

In the test the test system is 3D patient-derived meningioma models (pediatric patient's meningioma tissue). Nature of the test: Drug treatment of 3D patient-derived meningioma models, live cell staining (calcein AM) and confocal imaging. It counts as cell-based, human. The following applies: one month-old 3D pediatric meningioma models; drug 0.05 to 0.8 mM for 48 hours; calcein AM live stain; compared to etoposide, carmustine, irinotecan hydrochloride, temozolomide. Here is the method:
FIGS. 7A-7B show drug treatment of 3D patient-derived meningioma models. A pediatric patient's meningioma tissue was used to generate replicates of 3D tumor models. One month-old models were treated with chemotherapeutic drugs, etoposide (VP16), carmustine (BCNU), lomustine (CCNU), irinotecan hydrochloride (CPT11) and temozolomide (TMZ) of 0.05 to 0.8 mM for 48 hours. The models were stained with calcein AM (2 uM) for live cells and confocal imaged ([…] section, 35 sections). (FIG. 7A) Maximum projection of 3D image stacks of drug-treated models. Number indicates drug concentration in mM. Ctrl, control. Scale bar, […]. (FIG. 7B) Quantification of live cell counts in relation to drug doses.
FIGS. 7A-7B show an example of drug study using patient-derived tumor models. This example used a pediatric meningioma model to test commonly used chemotherapeutic drugs (etoposide, carmustine, lomustine, irinotecan hydrochloride and temozolomide). […] Additional studies will compare the in vitro findings with the patient's clinical responses to further determine the most optimal drug regimen.
Live/Dead Assay was used to image live cells in cultures, according to the manufacturer's protocol (ThermoFisher Scientific). […] The stained cultures were imaged with a fluorescence microscope at Ex/Em of 494/517 nm and 528/617 nm for Live and Dead stains, respectively. […]

As for `O=NN(CCCl)C(=O)NC1CCCCC1` [lomustine], the “tumor cell-killing effects (live cell counts in relation to drug doses)” value was “strongest tumor cell-killing effects”.
